Measured values taken from the NIST ThermoML archive (doi:10.1021/je400250u).
Numbers after ± are expanded uncertainties.

Key:
[1] = xn = mol fraction of the nth substance listed; settings: 100 kPa, Liquid; for viscosity: Capillary tube (Ostwald / Ubbelohde) method; for mass density: Vibrating tube method
[2] = refractive index (Na D-line) (dimensionless); xn = mol fraction of the nth substance listed; settings: 100 kPa, Liquid, Standard Abbe refractometry

C1CC[C@H]2CCCC[C@H]2C1 [cis-decahydronaphthalene] + CCCCCCCCCC
Settings	mass density, [1] [kg/m3]	refractive index, [2]	viscosity, [1] [mPa·s]
293.15 K, x1 = 0.1006	744.89 ± 0.24	–	1.006 ± 0.012
293.15 K, x1 = 0.2055	759.79 ± 0.25	–	1.09 ± 0.013
293.15 K, x1 = 0.3009	773.95 ± 0.27	–	1.197 ± 0.014
293.15 K, x1 = 0.3965	788.64 ± 0.29	–	1.366 ± 0.015
293.15 K, x1 = 0.508	806.55 ± 0.31	–	1.481 ± 0.016
293.15 K, x1 = 0.6026	822.35 ± 0.34	–	1.669 ± 0.017
293.15 K, x1 = 0.7012	839.6 ± 0.37	–	1.954 ± 0.02
293.15 K, x1 = 0.7763	853.24 ± 0.39	–	2.163 ± 0.022
293.15 K, x1 = 0.8985	876.48 ± 0.44	–	2.647 ± 0.026
293.15 K, x1 = 1	896.85 ± 0.48	–	3.355 ± 0.033
298.15 K, x1 = 0.1006	741.18 ± 0.24	1.415 ± 0.0013	0.933 ± 0.012
298.15 K, x1 = 0.2055	756.08 ± 0.25	1.421 ± 0.0013	1.015 ± 0.013
298.15 K, x1 = 0.3009	770.21 ± 0.27	1.427 ± 0.0013	1.107 ± 0.013
298.15 K, x1 = 0.3965	784.9 ± 0.29	1.4326 ± 0.0013	1.26 ± 0.014
298.15 K, x1 = 0.508	802.83 ± 0.31	1.4403 ± 0.0013	1.361 ± 0.015
298.15 K, x1 = 0.6026	818.62 ± 0.34	1.4464 ± 0.0013	1.53 ± 0.016
298.15 K, x1 = 0.7012	835.86 ± 0.37	1.4539 ± 0.0013	1.781 ± 0.019
298.15 K, x1 = 0.7763	849.49 ± 0.39	1.4594 ± 0.0013	1.964 ± 0.02
298.15 K, x1 = 0.8985	872.71 ± 0.44	1.4688 ± 0.0013	2.39 ± 0.024
298.15 K, x1 = 1	893.06 ± 0.48	1.4776 ± 0.0013	3.011 ± 0.03
303.15 K, x1 = 0.1006	737.4 ± 0.24	–	0.868 ± 0.012
303.15 K, x1 = 0.2055	752.31 ± 0.25	–	0.939 ± 0.012
303.15 K, x1 = 0.3009	766.45 ± 0.27	–	1.022 ± 0.013
303.15 K, x1 = 0.3965	781.15 ± 0.29	–	1.162 ± 0.014
303.15 K, x1 = 0.508	799.07 ± 0.31	–	1.255 ± 0.014
303.15 K, x1 = 0.6026	814.86 ± 0.34	–	1.406 ± 0.016
303.15 K, x1 = 0.7012	832.1 ± 0.37	–	1.633 ± 0.017
303.15 K, x1 = 0.7763	845.72 ± 0.39	–	1.792 ± 0.019
303.15 K, x1 = 0.8985	868.93 ± 0.44	–	2.168 ± 0.022
303.15 K, x1 = 1	889.26 ± 0.48	–	2.718 ± 0.028
308.15 K, x1 = 0.1006	733.61 ± 0.24	1.4109 ± 0.0013	0.812 ± 0.012
308.15 K, x1 = 0.2055	748.53 ± 0.25	1.4167 ± 0.0013	0.876 ± 0.012
308.15 K, x1 = 0.3009	762.68 ± 0.27	1.4227 ± 0.0013	0.95 ± 0.013
308.15 K, x1 = 0.3965	777.38 ± 0.29	1.4284 ± 0.0013	1.076 ± 0.013
308.15 K, x1 = 0.508	795.31 ± 0.31	1.4358 ± 0.0013	1.162 ± 0.014
308.15 K, x1 = 0.6026	811.1 ± 0.34	1.4422 ± 0.0013	1.298 ± 0.015
308.15 K, x1 = 0.7012	828.33 ± 0.36	1.4496 ± 0.0013	1.503 ± 0.017
308.15 K, x1 = 0.7763	841.96 ± 0.39	1.455 ± 0.0013	1.644 ± 0.018
308.15 K, x1 = 0.8985	865.15 ± 0.44	1.4647 ± 0.0013	1.979 ± 0.021
308.15 K, x1 = 1	885.46 ± 0.48	1.4736 ± 0.0013	2.47 ± 0.026
313.15 K, x1 = 0.1006	729.8 ± 0.24	–	0.76 ± 0.012
313.15 K, x1 = 0.2055	744.74 ± 0.25	–	0.82 ± 0.012
313.15 K, x1 = 0.3009	758.9 ± 0.27	–	0.887 ± 0.012
313.15 K, x1 = 0.3965	773.6 ± 0.29	–	0.996 ± 0.013
313.15 K, x1 = 0.508	791.54 ± 0.31	–	1.079 ± 0.014
313.15 K, x1 = 0.6026	807.33 ± 0.33	–	1.204 ± 0.014
313.15 K, x1 = 0.7012	824.56 ± 0.36	–	1.389 ± 0.016
313.15 K, x1 = 0.7763	838.18 ± 0.39	–	1.517 ± 0.017
313.15 K, x1 = 0.8985	861.37 ± 0.43	–	1.811 ± 0.02
313.15 K, x1 = 1	881.65 ± 0.48	–	2.252 ± 0.024
318.15 K, x1 = 0.1006	725.99 ± 0.24	1.4065 ± 0.0013	0.715 ± 0.011
318.15 K, x1 = 0.2055	740.94 ± 0.25	1.4127 ± 0.0013	0.771 ± 0.012
318.15 K, x1 = 0.3009	755.1 ± 0.27	1.4188 ± 0.0013	0.832 ± 0.012
318.15 K, x1 = 0.3965	769.81 ± 0.29	1.4251 ± 0.0013	0.924 ± 0.013
318.15 K, x1 = 0.508	787.76 ± 0.31	1.4319 ± 0.0013	1.007 ± 0.013
318.15 K, x1 = 0.6026	803.55 ± 0.33	1.4384 ± 0.0013	1.12 ± 0.014
318.15 K, x1 = 0.7012	820.78 ± 0.36	1.4456 ± 0.0013	1.286 ± 0.015
318.15 K, x1 = 0.7763	834.4 ± 0.39	1.4515 ± 0.0013	1.401 ± 0.016
318.15 K, x1 = 0.8985	857.58 ± 0.43	1.4611 ± 0.0013	1.666 ± 0.018
318.15 K, x1 = 1	877.85 ± 0.47	1.4696 ± 0.0013	2.063 ± 0.022
323.15 K, x1 = 0.1006	722.16 ± 0.24	–	0.674 ± 0.011
323.15 K, x1 = 0.2055	737.12 ± 0.25	–	0.725 ± 0.012
323.15 K, x1 = 0.3009	751.29 ± 0.27	–	0.781 ± 0.012
323.15 K, x1 = 0.3965	766.01 ± 0.29	–	0.859 ± 0.012
323.15 K, x1 = 0.508	783.96 ± 0.31	–	0.941 ± 0.013
323.15 K, x1 = 0.6026	799.76 ± 0.33	–	1.045 ± 0.014
323.15 K, x1 = 0.7012	816.99 ± 0.36	–	1.193 ± 0.015
323.15 K, x1 = 0.7763	830.61 ± 0.39	–	1.299 ± 0.015
323.15 K, x1 = 0.8985	853.78 ± 0.43	–	1.539 ± 0.018
323.15 K, x1 = 1	874.05 ± 0.47	–	1.898 ± 0.021
